Measurements as given in patent US7214690B2, “Tricyclic quinolinone and tricyclic quinoline androgen receptor modulator compounds and methods” (Ligand Pharmaceuticals Incorporated, priority 2001, dated 2007).

Columns and labels:
Type in all cases: cell-based
MR = target: T1, MR (Homo sapiens, UniProt P08235); experiment: co-transfection assay, MR
T1 construct: expressed in transfected cells; host or cells: background cell substantially devoid of endogenous IRs (CV-1 described for the co-transfection assay)
T1 sequence (P08235 1-984): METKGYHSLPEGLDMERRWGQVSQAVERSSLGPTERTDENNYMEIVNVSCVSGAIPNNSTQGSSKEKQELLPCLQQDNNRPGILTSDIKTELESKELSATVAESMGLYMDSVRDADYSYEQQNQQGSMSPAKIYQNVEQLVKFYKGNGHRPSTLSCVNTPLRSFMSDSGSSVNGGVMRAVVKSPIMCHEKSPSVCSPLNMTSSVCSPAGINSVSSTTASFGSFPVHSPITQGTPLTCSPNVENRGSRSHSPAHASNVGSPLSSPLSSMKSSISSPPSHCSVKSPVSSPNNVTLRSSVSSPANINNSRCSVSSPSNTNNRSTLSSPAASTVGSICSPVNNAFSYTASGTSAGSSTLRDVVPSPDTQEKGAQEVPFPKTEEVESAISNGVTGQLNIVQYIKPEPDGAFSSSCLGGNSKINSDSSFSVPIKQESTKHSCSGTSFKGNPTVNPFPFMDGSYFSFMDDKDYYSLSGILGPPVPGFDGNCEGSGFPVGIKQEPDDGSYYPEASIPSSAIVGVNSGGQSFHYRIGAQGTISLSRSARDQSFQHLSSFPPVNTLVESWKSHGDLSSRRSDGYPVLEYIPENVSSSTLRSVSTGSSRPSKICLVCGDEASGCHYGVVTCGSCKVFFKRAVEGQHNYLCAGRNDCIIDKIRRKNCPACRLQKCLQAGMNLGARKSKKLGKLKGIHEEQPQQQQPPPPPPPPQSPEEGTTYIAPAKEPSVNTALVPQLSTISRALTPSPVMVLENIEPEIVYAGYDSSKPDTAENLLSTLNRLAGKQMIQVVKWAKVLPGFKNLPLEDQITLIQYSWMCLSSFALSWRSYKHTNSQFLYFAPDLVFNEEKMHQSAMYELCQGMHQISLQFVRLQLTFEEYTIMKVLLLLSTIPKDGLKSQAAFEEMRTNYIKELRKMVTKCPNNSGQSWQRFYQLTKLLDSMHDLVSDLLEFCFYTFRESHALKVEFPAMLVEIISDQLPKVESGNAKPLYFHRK
Protocol: (§1) CV-1 cells (African green monkey kidney fibroblasts) were cultured in the presence of Dulbecco's Modified Eagle Medium (DMEM) supplemented with 10% charcoal resin-stripped fetal bovine serum (CH-FBS) then transferred to 96-well microtiter plates one day prior to transfection.
(§2) Three to four replicates were used for each sample.
(§3) After 40 hours, the cells were washed with PBS, lysed with a Triton X-100-based buffer and assayed for LUC and β-Gal activities using a luminometer or spectrophotometer, respectively. For each replicate, the normalized response (NR) was calculated as: LUC response/β-Gal rate • where β-Gal rate=β-Gal/β-Gal incubation time.

ER = target: T2, ER (Homo sapiens, UniProt P03372); experiment: co-transfection assay, ER
T2 construct: expressed in transfected cells; host or cells: background cell substantially devoid of endogenous IRs (CV-1 described for the co-transfection assay)
T2 sequence (P03372 1-595): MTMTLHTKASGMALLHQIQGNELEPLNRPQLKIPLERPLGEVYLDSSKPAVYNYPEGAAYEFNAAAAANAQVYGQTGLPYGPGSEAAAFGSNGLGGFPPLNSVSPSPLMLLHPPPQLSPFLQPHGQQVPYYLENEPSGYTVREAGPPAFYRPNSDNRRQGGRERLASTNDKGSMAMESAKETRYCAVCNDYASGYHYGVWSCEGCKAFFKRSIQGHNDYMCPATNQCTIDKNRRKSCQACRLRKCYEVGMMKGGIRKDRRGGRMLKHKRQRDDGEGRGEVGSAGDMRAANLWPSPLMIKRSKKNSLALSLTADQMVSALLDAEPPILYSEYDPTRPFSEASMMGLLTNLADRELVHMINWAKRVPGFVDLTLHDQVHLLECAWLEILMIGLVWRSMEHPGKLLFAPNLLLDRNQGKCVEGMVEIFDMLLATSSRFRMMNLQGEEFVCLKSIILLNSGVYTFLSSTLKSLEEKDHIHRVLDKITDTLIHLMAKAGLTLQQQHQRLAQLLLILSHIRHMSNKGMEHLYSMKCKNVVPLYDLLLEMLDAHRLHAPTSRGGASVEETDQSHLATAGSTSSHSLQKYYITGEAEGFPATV
Protocol: as §1, §2, §3

PR = target: T3, PR (Homo sapiens, UniProt P06401); experiment: co-transfection assay, PR
T3 construct: expressed in transfected cells; host or cells: background cell substantially devoid of endogenous IRs (CV-1 described for the co-transfection assay)
T3 sequence (P06401 1-933): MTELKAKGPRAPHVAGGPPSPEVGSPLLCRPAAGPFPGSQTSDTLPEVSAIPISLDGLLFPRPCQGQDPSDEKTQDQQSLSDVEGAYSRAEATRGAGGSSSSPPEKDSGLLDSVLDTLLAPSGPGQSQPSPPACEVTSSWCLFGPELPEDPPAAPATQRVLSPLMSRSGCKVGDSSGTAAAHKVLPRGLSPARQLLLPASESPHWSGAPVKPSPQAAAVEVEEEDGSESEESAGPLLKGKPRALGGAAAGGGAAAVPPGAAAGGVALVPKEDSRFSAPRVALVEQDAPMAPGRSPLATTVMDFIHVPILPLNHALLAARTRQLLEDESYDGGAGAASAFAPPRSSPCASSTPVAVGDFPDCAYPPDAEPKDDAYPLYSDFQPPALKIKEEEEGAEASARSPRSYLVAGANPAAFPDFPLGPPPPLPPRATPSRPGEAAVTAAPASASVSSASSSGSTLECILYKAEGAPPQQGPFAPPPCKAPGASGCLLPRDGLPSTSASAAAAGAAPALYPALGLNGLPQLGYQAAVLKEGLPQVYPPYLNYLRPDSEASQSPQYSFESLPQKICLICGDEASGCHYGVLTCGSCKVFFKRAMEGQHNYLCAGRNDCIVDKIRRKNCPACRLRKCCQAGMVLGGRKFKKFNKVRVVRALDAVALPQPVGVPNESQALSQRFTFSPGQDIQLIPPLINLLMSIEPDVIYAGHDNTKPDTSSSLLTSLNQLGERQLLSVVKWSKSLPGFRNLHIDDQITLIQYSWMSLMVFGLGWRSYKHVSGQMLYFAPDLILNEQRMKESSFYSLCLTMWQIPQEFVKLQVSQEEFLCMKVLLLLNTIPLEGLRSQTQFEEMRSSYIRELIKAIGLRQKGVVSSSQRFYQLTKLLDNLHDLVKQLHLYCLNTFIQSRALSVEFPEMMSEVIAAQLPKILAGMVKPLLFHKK
Protocol: as §1, §2, §3

Structure (SMILES) | IC50 (MR) [µM] | EC50 (ER) [µM] | IC50 (ER) [µM] | EC50 (PR) [µM]
CC[C@@H]1COc2c(ccc3[nH]c(=O)cc(C(F)(F)F)c23)N1CC(F)(F)F [Compound 110, (3R)-3-Ethyl-2,3,4,7-tetrahydro-4-(2,2,2-trifluoroethyl)-10-(trifluoromethyl)-8H-[1,4]oxazino[2,3-f]quinolin-8-one] | 1.27 | > 10 | > 10 | > 10
C=CCN1c2ccc3[nH]c(=O)cc(C(F)(F)F)c3c2OC[C@H]1CC [Compound 114, (3R)-4-Allyl-3-ethyl-2,3,4,7-tetrahydro-10-(trifluoromethyl)-8H-[1,4]oxazino[2,3-f]quinolin-8-one] | > 10 | > 10 | > 10 | > 10
CC(C)[C@@H]1COc2c(ccc3[nH]c(=O)cc(C(F)(F)F)c23)N1CC(F)(F)Cl [Compound 124, (3R)-4-(2-Chloro-2,2-difluoroethyl)-2,3,4,7-tetrahydro-3-isopropyl-10-(trifluoromethyl)-8H-[1,4]oxazino[2,3-f]quinolin-8-one] | > 10 | > 10 | > 10 | > 10
